The values that follow come from ChEMBL document CHEMBL4651402, “Screening of ~5500 FDA-approved drugs and clinical candidates for anti-SARS-CoV-2 activity” (2021).

For this assay, the system named is SARS-CoV-2. The assay is described as follows: microbe, parasite or virus in culture. The conditions noted are these: Severe acute respiratory syndrome coronavirus 2, Vero C1008, 48 h.

In turn, `CN(CCCN1c2ccccc2CCc2ccccc21)CC(=O)c1ccc(Cl)cc1` [LOFEPRAMINE] had an IC50 above 20 µM. In addition, the IC50 (read-out: pIC50 (converted)) is above 20 µM.

In turn, `O=C(NC(Cc1cc(=O)[nH]c2ccccc12)C(=O)O)c1ccc(Cl)cc1` (configuration not stated) [REBAMIPIDE] displayed an IC50 above 20 µM. For the setting “read-out: pIC50 (converted)”, the IC50 is above 20 µM.

As for `COc1ccc2c(c1)[nH]c1c(C)nccc12` [HARMINE], the IC50 is above 20 µM. Moreover, the IC50 (read-out: pIC50 (converted)) is above 20 µM.

The compound `O=C(N[C@H]1CN2CCC1CC2)c1ccc(Cl)cc1` [PNU-282987] yielded an IC50 above 20 µM. For the same compound, where the note is “read-out: pIC50 (converted)”, the IC50 was above 20 µM.

Consider `CCOC(=O)[C@@](C)(N)Cc1ccc(O)c(O)c1` [METHYLDOPATE], for which the IC50 is above 20 µM. Further, for the setting “read-out: pIC50 (converted)”, the IC50 is above 20 µM.

For the compound `CC(C)(C)c1cc2c(cc1Cl)C=C(C(=O)O)C(C(F)(F)F)O2` (configuration not stated), the IC50 is above 20 µM. Besides, the IC50 (read-out: pIC50 (converted)) is above 20 µM.

In the case of `CC(C)CC(NC(=O)CCN)C(=O)O` (racemic), the IC50 is above 20 µM. Also, where the note is “read-out: pIC50 (converted)”, the IC50 was above 20 µM.

In turn, `C[C@]12CCC(=O)C=C1C=C[C@@H]1[C@@H]2CC[C@@]2(C)[C@H]1CC[C@@]21CCC(=O)O1` [CANRENONE] showed an IC50 above 20 µM. The IC50 (read-out: pIC50 (converted)) was above 20 µM.

`N=C(N)NCCCCNC(=N)N` [ARCAINE] had an IC50 above 20 µM. Further, the IC50 (read-out: pIC50 (converted)) is above 20 µM.

Compound `CC[C@H]1OC(=O)[C@H](C)[C@@H](O[C@H]2C[C@@](C)(OC)[C@@H](O)[C@H](C)O2)[C@H](C)[C@@H](O[C@@H]2O[C@H](C)C[C@H](N(C)C(C)C)[C@H]2O)[C@@]2(C)CC(C)=C(O2)[C@H](C)[C@@H](O)[C@]1(C)O` [IDREMCINAL] came in with an IC50 above 20 µM. For the same compound, the IC50 (read-out: pIC50 (converted)) was above 20 µM.

Turning to `O=C(OC(C(F)(F)F)C(F)(F)F)N1CCN(Cc2ccc(C(F)(F)F)cc2N2CCCC2)CC1` [ELCUBRAGISTAT], the IC50 was above 20 µM. The IC50 (read-out: pIC50 (converted)) was above 20 µM.

With `O=C(O)c1cc(/N=N/c2ccc(S(=O)(=O)Nc3ccccn3)cc2)ccc1O` [SULFASALAZINE], the IC50 was above 20 µM. The IC50 (read-out: pIC50 (converted)) is above 20 µM.

`O=C1c2cccc(O)c2C(=O)c2c(O)cccc21` [DANTHRON] gave an IC50 above 20 µM. Moreover, the IC50 (read-out: pIC50 (converted)) is above 20 µM.

The compound `CCN(C)C(=O)Oc1cccc([C@H](C)N(C)C)c1` [RIVASTIGMINE] returned an IC50 above 20 µM. The IC50 (read-out: pIC50 (converted)) is above 20 µM.

On to `CC(C)NC1CCC(c2ccccc2)(c2ccccc2)CC1` [PRAMIVERINE], for which the IC50 is above 20 µM. For the same compound, the IC50 (read-out: pIC50 (converted)) was above 20 µM.

`CCN1CCN(c2cc3c(cc2F)c(=O)c(C(=O)O)cn3C2CC2)CC1` [ENROFLOXACIN] showed an IC50 above 20 µM. The IC50 (read-out: pIC50 (converted)) was above 20 µM.

As for `CC(=O)Nc1ccc(OCC(O)CNC(C)C)cc1` (configuration not stated) [PRACTOLOL], the IC50 is above 20 µM. For the same compound, the IC50 (read-out: pIC50 (converted)) was above 20 µM.

In turn, `O=c1[nH]c(=O)n(C2CC(O)C(CO)O2)cc1I` (configuration not stated) returned an IC50 above 20 µM. The IC50 (read-out: pIC50 (converted)) was above 20 µM.

Take `Cc1noc(COc2ccccc2OCC(O)CNC(C)(C)C)n1` (configuration not stated): the IC50 is above 20 µM. Moreover, the IC50 (read-out: pIC50 (converted)) was above 20 µM.

`Nc1ccc(S(=O)(=O)c2ccc(NCC(=O)O)cc2)cc1` [ACEDIASULFONE] had an IC50 above 20 µM. The IC50 (read-out: pIC50 (converted)) was above 20 µM.

With `O=C1NCCN1c1ncc([N+](=O)[O-])s1` [NIRIDAZOLE], the IC50 was above 20 µM. Besides, under “read-out: pIC50 (converted)”, the IC50 was above 20 µM.

Take `O=C(O)c1ccc(C2CC2c2ccc(OCc3c(-c4c(Cl)cccc4Cl)noc3C3CC3)cc2Cl)cc1` (configuration not stated): the IC50 is above 20 µM. The IC50 (read-out: pIC50 (converted)) is above 20 µM.

Compound `CC1(C)CCC2(C)CCC3(C)C(=CCC4C5(C)CCC(O)C(C)(C)[C@@H]5CCC43C)C2C1` (some centres not stated) returned an IC50 above 20 µM. The IC50 (read-out: pIC50 (converted)) was above 20 µM.

In the case of `CCN(CCCC(=O)C1CCCCC1)[C@@H](C)Cc1ccc(OC)cc1` [DEXSECOVERINE], the IC50 is above 20 µM. The IC50 (read-out: pIC50 (converted)) is above 20 µM.

As to `Cc1cccc(C)c1NC(=O)C(C)N` (configuration not stated) [TOCAINIDE], the IC50 was above 20 µM. Besides, the IC50 (read-out: pIC50 (converted)) was above 20 µM.

Take `[2H]c1c(C([2H])([2H])[2H])nc(N2CC3CN(C(=O)c4c(F)cccc4-n4nccn4)CC3C2)nc1C([2H])([2H])[2H]` (configuration not stated): the IC50 is above 20 µM. For the same compound, the IC50 (read-out: pIC50 (converted)) is above 20 µM.

Take `N=C(N)NCc1cccc(I)c1` [IOBENGUANE]: the IC50 is above 20 µM. Moreover, the IC50 (read-out: pIC50 (converted)) was above 20 µM.

As for `Cc1nccnc1N1CCCCC1` [MODALINE], the IC50 was above 20 µM. The IC50 (read-out: pIC50 (converted)) is above 20 µM.

For the compound `CC(C)(C)C(O)(COc1ccc(Cl)cc1)Cn1cncn1` (configuration not stated), the IC50 was above 20 µM. In addition, the IC50 (read-out: pIC50 (converted)) was above 20 µM.

`CC(=O)N1C[C@H](O)C[C@H]1C(=O)O` [OXACEPROL] gave an IC50 above 20 µM. For the same compound, under “read-out: pIC50 (converted)”, the IC50 is above 20 µM.

`CC(C)(C)C(O)/C=C/c1ccc2c(c1)OCO2` (configuration not stated) [STIRIPENTOL] yielded an IC50 above 20 µM. Under “read-out: pIC50 (converted)”, the IC50 was above 20 µM.

Turning to `CN(C/C=C/C#CC(C)(C)C)Cc1cccc2ccccc12` [TERBINAFINE], the IC50 is above 20 µM. The IC50 (read-out: pIC50 (converted)) was above 20 µM.

Consider `Oc1c(I)cc(I)c2cccnc12` [IODOQUINOL], for which the IC50 is above 20 µM. In addition, the IC50 (read-out: pIC50 (converted)) is above 20 µM.

Compound `CCc1cc(/C(C)=N/OCc2ccc(C3CCCCC3)c(C(F)(F)F)c2)ccc1CN1CC(C(=O)O)C1` [SIPONIMOD] yielded an IC50 above 20 µM. Besides, the IC50 (read-out: pIC50 (converted)) was above 20 µM.

Consider `C=CCC1(CC=C)C(=O)NC(=O)NC1=O` [ALLOBARBITAL], for which the IC50 is above 20 µM. For the same compound, for the setting “read-out: pIC50 (converted)”, the IC50 was above 20 µM.

In turn, `CCOCCOc1ccccc1C(N)=O` [ETOSALAMIDE] gave an IC50 above 20 µM. The IC50 (read-out: pIC50 (converted)) is above 20 µM.

Compound `Cc1nc2n(c(=O)c1CCN1CCC(c3noc4cc(F)ccc34)CC1)CCC[C@@H]2O` came in with an IC50 above 20 µM. Moreover, the IC50 (read-out: pIC50 (converted)) is above 20 µM.

As to `CC(=O)OC1CCC2(C)C3CC(=O)C4(C)C(C(C)=O)=CCC4C3CC[C@H]2C1` (some centres not stated), the IC50 was above 20 µM. Besides, the IC50 (read-out: pIC50 (converted)) was above 20 µM.

With `Nc1nccc2c1ncn2C1OC(CO)C(O)C1O` (configuration not stated), the IC50 was above 20 µM. In addition, under “read-out: pIC50 (converted)”, the IC50 was above 20 µM.

`C[N+]1(C)C2CCC1CC(OC(=O)C(O)c1ccccc1)C2` (configuration not stated) gave an IC50 above 20 µM. For the same compound, the IC50 (read-out: pIC50 (converted)) is above 20 µM.

With `CCOC(=O)C1OC1C(=O)NC(CC(C)C)C(=O)N1CCN(Cc2ccc(OC)c(OC)c2OC)CC1` (configuration not stated), the IC50 is above 20 µM. Under “read-out: pIC50 (converted)”, the IC50 is above 20 µM.

The compound `O=C(O)c1ccc(NC(=O)C(Cc2ccc(O)cc2)NC(=O)c2ccccc2)cc1` (configuration not stated) showed an IC50 above 20 µM. Also, the IC50 (read-out: pIC50 (converted)) is above 20 µM.

With `Nc1ccc(C#Cc2cnn3c(C(F)(F)F)cc(-c4ccc(C(F)(F)F)cc4)nc23)cn1` [DECOGLURANT], the IC50 is above 20 µM. In addition, the IC50 (read-out: pIC50 (converted)) is above 20 µM.

The compound `CCC(C)(C)C(=O)O[C@H]1C[C@@H](C)C=C2C=C[C@H](C)[C@H](CC[C@@H]3C[C@@H](O)CC(=O)O3)[C@H]21` [SIMVASTATIN] yielded an IC50 above 20 µM. For the same compound, the IC50 (read-out: pIC50 (converted)) was above 20 µM.

The compound `O=C(c1ccccc1)C(O)c1ccccc1` (configuration not stated) [BENZOIN] came in with an IC50 above 20 µM. Besides, the IC50 (read-out: pIC50 (converted)) is above 20 µM.

In the case of `O=C(/C=C/c1ccc(O)c(O)c1)OC(Cc1ccc(O)c(O)c1)C(=O)O` (configuration not stated), the IC50 is above 20 µM. Besides, the IC50 (read-out: pIC50 (converted)) is above 20 µM.
